Measurements as given in patent publication US7071231B2, “Naphthalene ureas as glucose uptake enhancers” (Telik, Inc., priority 1999, dated 2006).

Legend:
[1] = molecular target: T1, β-kinase domain of the human insulin receptor (CKD) (Homo sapiens, UniProt P06213); assay: 32P-cytoplasmic kinase domain (CKD) autophosphorylation assay; format: biochemical; settings: phosphorylation of CKD expressed as % of the vehicle level; 10 minutes at room temperature; compound concentration not given
T1 construct: The complete β-kinase domain of the human insulin receptor (CKD) was expressed in, and purified from, baculovirus; made in house
Method in brief: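 Baculovirus-expressed CKD (4.0 μg/ml) in 29 mM HEPES pH 7.6, 10 mM MgCl2, 2 mM MnCl2 with 50 μM ATP plus ^32P-ATP, 1% DMSO, 10 min at room temperature. EDTA stop, SDS-PAGE, CKD-band radioactivity by phosphorimaging or scintillation counting; activity as % of vehicle phosphorylation.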

[2] = system: GLUT4 in 3T3 L1 adipocytes; assay: Immunofluorescence analysis of GLUT4 mobilization; format: cell-based; settings: 56 μM Compound 15 alone, 1 hr at 37° C. (FIG. 6C)
Experimental: Immunofluorescence Analysis of GLUT4 Mobilization in 3T3 L1 Adipocytes Insulin-dependent transport of glucose into cells utilizes glucose transporter proteins, such as GLUT4. Stimulation with insulin causes these transporters to translocate from storage sites within the cell to the cell membrane, where they facilitate glucose entry. 3T3 L1 adipocytes were grown and differentiated as in Example 11, except that they were grown on a microscope chamber slide. The cells were serum-starved with 0.1% BSA in DMEM for 16 hrs and stimulated with 56 μM Compound 15 alone, 100 nM Insulin for 1 hr at 37° C. The cells were fixed with 3.5% paraformaldehyde for 5 min and permeabilized with 0.2% saponin in 1% BSA, TBS for 5 min followed by incubation with anti-GLUT4 antibody for 30 min at room temperature. The cells were extensively washed and incubated with FITC-conjugated secondary antibody for 30 min at room temperature.

EGFR = molecular target: T2, EGFR (Homo sapiens, UniProt P00533); assay: Selectivity: EGFR phosphorylation in A431 cells; format: cell-based; settings: in the presence or absence of EGF (2.5 ng/ml)
T2 construct: endogenous in cells; host or cells: A431
Experimental: Selectivity vs. EGFR, PDGFR and IGFR
In order to determine the selectivity of these compounds for the insulin receptor, their effects on other receptors that share a similar mechanism of activation with the insulin receptor were examined. Human epidermoid carcinoma (A431) cells were plated at a density of 2×10^5 cells per well in 6-well dishes in DMEM with 10% FBS and L-Glutamine and allowed to grow to 75% confluence. Prior to the experiment, the cells were serum-starved overnight with DMEM with 0.1% BSA. The following morning, the cells were washed with PBS and the medium was replaced with 150 mM NaCl, 1.7 mM KCl, 0.9 mM CaCl2, K2HPO4 (pH 7.4), to which was added either the experimental compound or its vehicle (DMSO). Epidermal Growth Factor (EGF) or its vehicle (0.01% BSA) was diluted in the assay buffer (containing test compound or vehicle respectively) to a final concentration of 2.5 ng/ml. After incubating for 15 min, the cells were washed with cold PBS twice and lysed in 50 mM Tris.HCl pH 7.4, 150 mM NaCl, 0.25% sodium deoxycholate, 1% NP40, 1 mM EGTA, 1 mM PMSF, 1 mM Na3VO4, 1 mM NaF, 1 ug/ml each of Aprotinin, Leupeptin and Pepstatin. The cell lysates were clarified by centrifugation at 12000 rpm, and the supernatants were estimated for protein concentration. […]

[3] = system: platelet-derived growth factor (PDGF) receptor; assay: Selectivity: PDGF receptor phosphorylation; format: cell-based; settings: in the absence or presence of PDGF
insulin receptor = molecular target: T3, insulin receptor (Rattus norvegicus, UniProt P15127); assay: Rat muscle insulin receptor phosphorylation after oral dose; format: in vivo; settings: STZ/HFD rats, oral dose 30 mg/kg, muscle samples 0.5-6 hr (FIG. 12)
T3 construct: from tissue; host or cells: rat muscle (in vivo oral dosing)
Experimental: Rat Muscle Phosphorylation
Muscle is a particularly important tissue for taking up glucose from the blood in response to insulin receptor stimulation. Activation of muscle insulin receptors is, therefore, an important factor in the control of blood glucose levels. STZ/HFD rats prepared as in Example 18 were given an oral dose of Compound 15 (30 mg/kg), and muscle samples were harvested at different time points (0.5 hr, 1 hr, 2 hr, 3 hr, 4 hr, 6 hr) and homogenized in extraction buffer (50 mM Tris.HCl pH 7.4, 150 mM NaCl, 0.25% sodium deoxycholate, 1% NP40, 1 mM EGTA, 1 mM PMSF, 1 mM Na3VO4, 1 mM NaF, 1 ug/ml each of Aprotinin, Leupeptin and Pepstatin). The tissue homogenate was centrifuged at 12K for 30 min at 4° C., and the supernatants were saved. An equal protein amount from each sample was immunoprecipitated with anti-insulin receptor antibody for 2 hr at 4° C., followed by another 1 hr incubation with Protein G-Agarose beads. The immunecomplexes were washed three times with the extraction buffer, and the samples were boiled in 2× SDS-PAGE loading buffer for 5 min at 100° C. The samples were resolved in a 7.5% SDS-PAGE along with Amersham rainbow marker protein as a molecular weight standard. […]

male CD rats = assay: Acute toxicity in CD rats; format: in vivo; settings: p.o., 300 mg/kg in PBS
Experimental: Compound 15 was administered in PBS vehicle to male db/db mice (i.p.) and male CD rats (p.o.) at 300 mg/kg, which is approximately 10 times its effective dose.

CYP2C19 = CYP2C19 (Homo sapiens, UniProt P33261); assay: P450 interactions: CYP2C19 inhibition; format: in vitro ADME; settings: human cytochromes P450
From the text: (§1) A major pathway for elimination of drugs from the body, which may limit their effectiveness, is the cytochrome P450 system of the liver.

CYP2D6 = CYP2D6 (Homo sapiens, UniProt P10635); assay: P450 interactions: CYP2D6 inhibition; format: in vitro ADME; settings: human cytochromes P450
From the text: as §1

T1 sequence (P06213 980-1382 limits assumed): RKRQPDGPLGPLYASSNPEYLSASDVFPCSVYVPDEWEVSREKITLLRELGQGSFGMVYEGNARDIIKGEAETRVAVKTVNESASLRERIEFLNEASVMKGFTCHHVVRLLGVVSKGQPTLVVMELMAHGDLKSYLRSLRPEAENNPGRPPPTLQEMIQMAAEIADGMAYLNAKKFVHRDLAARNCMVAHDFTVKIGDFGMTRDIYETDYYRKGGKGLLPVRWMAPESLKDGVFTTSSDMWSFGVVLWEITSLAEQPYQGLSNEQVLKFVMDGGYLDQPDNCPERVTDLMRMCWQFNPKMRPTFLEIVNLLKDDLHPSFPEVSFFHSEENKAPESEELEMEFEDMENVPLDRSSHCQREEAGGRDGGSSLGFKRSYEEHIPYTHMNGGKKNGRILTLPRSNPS
Sequence of CYP2D6 (P10635 whole entry): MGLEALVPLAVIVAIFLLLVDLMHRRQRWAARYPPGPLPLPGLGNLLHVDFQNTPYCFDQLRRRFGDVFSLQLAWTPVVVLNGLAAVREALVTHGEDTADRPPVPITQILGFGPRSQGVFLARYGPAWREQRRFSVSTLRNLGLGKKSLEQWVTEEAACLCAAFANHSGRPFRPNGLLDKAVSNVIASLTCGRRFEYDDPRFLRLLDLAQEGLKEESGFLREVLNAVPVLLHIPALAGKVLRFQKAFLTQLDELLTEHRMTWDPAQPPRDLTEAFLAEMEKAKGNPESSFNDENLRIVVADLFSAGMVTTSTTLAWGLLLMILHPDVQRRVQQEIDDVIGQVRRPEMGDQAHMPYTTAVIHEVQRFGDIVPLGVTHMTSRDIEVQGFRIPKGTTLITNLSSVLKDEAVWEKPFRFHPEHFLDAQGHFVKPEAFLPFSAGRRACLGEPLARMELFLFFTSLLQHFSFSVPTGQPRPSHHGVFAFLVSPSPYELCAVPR
Sequence of CYP2C19 (P33261 whole entry): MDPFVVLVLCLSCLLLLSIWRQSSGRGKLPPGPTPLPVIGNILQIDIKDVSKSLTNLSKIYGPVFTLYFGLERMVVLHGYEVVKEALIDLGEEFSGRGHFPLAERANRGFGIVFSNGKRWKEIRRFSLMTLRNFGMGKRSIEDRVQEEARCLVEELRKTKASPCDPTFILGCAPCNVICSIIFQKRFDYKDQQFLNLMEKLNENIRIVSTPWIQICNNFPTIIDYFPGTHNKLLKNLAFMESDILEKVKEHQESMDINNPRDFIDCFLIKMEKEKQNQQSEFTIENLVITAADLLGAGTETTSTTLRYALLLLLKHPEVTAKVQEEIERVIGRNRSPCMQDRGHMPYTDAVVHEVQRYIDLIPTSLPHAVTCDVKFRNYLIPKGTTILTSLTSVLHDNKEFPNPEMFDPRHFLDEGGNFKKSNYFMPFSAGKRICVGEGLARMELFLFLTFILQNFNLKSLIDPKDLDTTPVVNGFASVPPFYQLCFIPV
T2 sequence (P00533 25-1210): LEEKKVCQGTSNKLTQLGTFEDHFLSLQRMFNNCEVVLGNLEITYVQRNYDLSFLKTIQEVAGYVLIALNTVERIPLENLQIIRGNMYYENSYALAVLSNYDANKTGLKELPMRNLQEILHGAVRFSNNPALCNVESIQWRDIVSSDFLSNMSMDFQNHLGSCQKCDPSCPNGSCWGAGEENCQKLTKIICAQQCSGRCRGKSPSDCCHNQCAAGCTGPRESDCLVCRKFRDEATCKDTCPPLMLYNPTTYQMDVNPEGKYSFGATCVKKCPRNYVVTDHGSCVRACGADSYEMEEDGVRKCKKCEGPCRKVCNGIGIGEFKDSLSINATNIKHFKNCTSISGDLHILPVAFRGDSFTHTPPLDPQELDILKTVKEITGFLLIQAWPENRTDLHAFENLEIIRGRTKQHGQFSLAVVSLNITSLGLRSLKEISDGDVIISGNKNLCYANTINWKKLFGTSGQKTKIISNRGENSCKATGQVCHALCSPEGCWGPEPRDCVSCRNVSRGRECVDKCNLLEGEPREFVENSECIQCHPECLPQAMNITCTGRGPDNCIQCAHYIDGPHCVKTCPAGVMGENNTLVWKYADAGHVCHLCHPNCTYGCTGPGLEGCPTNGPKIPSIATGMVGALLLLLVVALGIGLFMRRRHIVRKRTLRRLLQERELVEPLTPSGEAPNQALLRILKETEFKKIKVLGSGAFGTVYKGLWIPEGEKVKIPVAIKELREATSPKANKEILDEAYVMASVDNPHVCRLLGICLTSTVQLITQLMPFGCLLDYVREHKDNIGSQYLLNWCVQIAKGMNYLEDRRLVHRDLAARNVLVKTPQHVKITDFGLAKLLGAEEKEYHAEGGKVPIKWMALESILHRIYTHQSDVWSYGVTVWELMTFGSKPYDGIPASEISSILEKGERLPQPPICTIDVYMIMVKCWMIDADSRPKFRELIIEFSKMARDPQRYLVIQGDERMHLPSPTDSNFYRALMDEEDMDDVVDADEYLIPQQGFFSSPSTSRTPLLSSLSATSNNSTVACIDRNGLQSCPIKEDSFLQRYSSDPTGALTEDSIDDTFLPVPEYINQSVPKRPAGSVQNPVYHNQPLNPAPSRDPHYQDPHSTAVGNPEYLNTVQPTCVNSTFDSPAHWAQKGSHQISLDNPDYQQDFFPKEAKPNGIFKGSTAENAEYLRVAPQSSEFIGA
T3 sequence (P15127 764-1383 limits assumed): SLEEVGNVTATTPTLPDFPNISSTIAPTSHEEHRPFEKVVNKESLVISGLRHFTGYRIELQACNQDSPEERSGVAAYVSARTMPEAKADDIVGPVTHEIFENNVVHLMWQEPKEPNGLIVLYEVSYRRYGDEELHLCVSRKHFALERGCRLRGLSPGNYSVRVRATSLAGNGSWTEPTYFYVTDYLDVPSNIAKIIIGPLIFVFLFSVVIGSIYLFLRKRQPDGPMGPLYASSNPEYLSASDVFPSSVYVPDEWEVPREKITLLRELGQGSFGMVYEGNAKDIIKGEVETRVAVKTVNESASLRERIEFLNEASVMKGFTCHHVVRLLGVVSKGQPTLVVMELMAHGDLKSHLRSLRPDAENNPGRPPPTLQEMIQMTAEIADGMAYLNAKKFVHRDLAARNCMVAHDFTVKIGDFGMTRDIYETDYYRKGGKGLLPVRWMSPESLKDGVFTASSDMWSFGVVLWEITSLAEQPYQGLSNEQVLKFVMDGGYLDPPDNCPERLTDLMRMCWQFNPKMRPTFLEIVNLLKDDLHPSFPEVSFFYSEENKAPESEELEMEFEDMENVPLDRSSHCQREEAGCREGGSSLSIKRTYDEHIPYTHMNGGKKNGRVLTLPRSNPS
T3 sequence (P15127 27-759 partner limits assumed): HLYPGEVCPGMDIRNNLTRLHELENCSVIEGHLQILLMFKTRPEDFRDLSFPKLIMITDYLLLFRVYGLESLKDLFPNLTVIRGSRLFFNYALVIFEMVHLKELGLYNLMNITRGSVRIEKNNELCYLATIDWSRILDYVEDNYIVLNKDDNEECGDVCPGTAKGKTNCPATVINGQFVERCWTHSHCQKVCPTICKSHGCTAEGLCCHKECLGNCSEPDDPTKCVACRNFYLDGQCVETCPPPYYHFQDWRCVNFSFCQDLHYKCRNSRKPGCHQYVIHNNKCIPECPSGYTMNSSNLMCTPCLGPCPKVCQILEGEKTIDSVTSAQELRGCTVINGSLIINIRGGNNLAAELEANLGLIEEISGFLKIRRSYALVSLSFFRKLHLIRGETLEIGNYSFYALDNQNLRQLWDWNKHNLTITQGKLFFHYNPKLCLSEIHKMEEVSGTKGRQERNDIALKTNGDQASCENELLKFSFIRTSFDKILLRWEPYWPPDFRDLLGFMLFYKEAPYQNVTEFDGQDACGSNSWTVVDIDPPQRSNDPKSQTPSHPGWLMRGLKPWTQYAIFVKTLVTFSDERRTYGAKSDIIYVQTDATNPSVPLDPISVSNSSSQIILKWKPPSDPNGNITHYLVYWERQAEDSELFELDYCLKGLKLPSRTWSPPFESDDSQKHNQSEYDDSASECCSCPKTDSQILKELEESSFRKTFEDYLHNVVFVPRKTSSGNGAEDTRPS

SMILES: O=C(Nc1ccc2c(O)cc(S(=O)(=O)Nc3cccc(S(=O)(=O)O)c3)cc2c1)Nc1ccc2c(O)cc(S(=O)(=O)Nc3cccc(S(=O)(=O)O)c3)cc2c1 [Compound 15, 3-{[(4-hydroxy-7-{[N-(5-hydroxy-7-{[(3-sulfophenyl)amino]sulfonyl}(2-naphthyl))carbamoyl]amino}-2-naphthyl)sulfonyl]amino}benzenesulfonic acid]
- % Activity vs. Control [1]: 125%
- GLUT4 translocation (immunofluorescence) [2]: produced apparent translocation of GLUT4 to the cell surface
- phosphorylation of EGFR (EGFR): did not increase the phosphorylation of EGFR
- phosphorylation of the PDGF receptor [3]: not to increase the phosphorylation
- phosphorylation of the insulin receptor in muscle (insulin receptor): produced an increase in phosphorylation of the insulin receptor
- acute toxicity (male CD rats): No acute toxicity was seen
- inhibition of catalytic activity of CYP2C19 (CYP2C19): did not inhibit
- inhibition of catalytic activity of CYP2D6 (CYP2D6): did not inhibit
